Reference: patent publication US20110223671A1, “Methods for using positively and negatively selectable genes in a filamentous fungal cell” (priority 2008, published 2011)

Columns and labels:
Type in all cases: cell-based
[1] = test system: Fusarium venenatum WTY842-1-11; test: Sensitivity testing of Fusarium venenatum WTY842-1-11 to FdU (plug growth on VNO3RLMT); details: 14 days
Procedure: For a thymidine kinase gene (tk) to be useful as a negatively selectable marker, a fungus must be […] to rather high concentrations of the nucleoside analog 5-fluoro-deoxyuridine (FdU). In order to ascertain the degree of sensitivity of Fusarium venenatum WTY842-1-11 to FdU, a one week old culture of Fusarium venenatum WTY842-1-11 was prepared by plating a colonized agar plug of the strain taken from a 10% glycerol stock, which had been stored at −140° C., onto a VNO3RLMT plate and incubating in a ChexAll Instant Seal Sterilization Pouch (Fisher Scientific, Pittsburgh, Pa., USA) for 7 days at 26-28° C. After 7 days plugs were cut sub-marginally from the one week old culture and placed face down on VNO3RLMT medium supplemented with different concentrations of FdU (0 to 500 μM) (Sigma Chemical Co., St. Louis, Mo., USA) in 6 well plates. The plates were incubated at 26-28° C. in open ZIPLOC® bags (S.C. Johnson Home Storage, Inc., Racine, Wis., USA) for 14 days, after which the extent of growth at each FdU concentration was recorded.

[2] = test system: Fusarium venenatum WTY1449-3-3 (tk+); test: Reconstruction experiment, growth on FdU-supplemented minimal media, tk+ strain; details: 50 μM FdU
Procedure: (§1) To determine whether very low uridine concentrations could confer resistance to FdU in a tk+ strain, a reconstruction experiment was performed. The tk+ strain Fusarium venenatum WTY1449-3-3 and the tk− strain Fusarium venenatum WTY1449-9-1 were used. Spores of each strain were induced and plated at 50 spores per plate (Fusarium venenatum WTY1449-9-1) or 50,000 spores per 14 cm diameter plate (Fusarium venenatum WTY1449-3-3). In addition, a combination of WTY1449-3-3 and WTY1449-9-1 spores, […], were mixed and plated. All plates contained VNO3RLMT supplemented with 50 μM FdU. The uridine concentration in the plates was 1, 0.5, 0.25, or 0.1 mM. Each treatment was performed in triplicate.
(§2) Colonies appearing on the plates on which mixtures of tk+ and tk− spores had been plated were sub-cultured to fresh plates of VNO3RLMT medium supplemented with 50 μM FdU (NO uridine). An equivalent number of samples were also sub-cultured from the background growth (3 colonies per mixed plate) to VNO3RLMT+50 μM FdU (No uridine). In addition, colonies and background growth were sub-cultured from pure tk− plates and pure tk+ plates to plates of VNO3RLMT+50 μM FdU (no uridine). […]

[3] = test system: Fusarium venenatum WTY1449-03-03 (bar+, tk+); test: Growth of spores of bar+, tk+ strain on FdU- and uridine-supplemented VNO3RLMT plates; details: 6 days, 28° C.
Procedure: To this end the bar+, tk+ strain Fusarium venenatum WTY1449-03-03 was revived on VNO3RLMT-BASTA™ plates (as described in Example 1) and induced to produce spores as described in Example 5. After harvesting and washing, the spores were plated (50,000 spores per 14 cm diameter plate) to FdU-supplemented VNO3RLMT plates containing 50 μM FdU and varying concentrations of uridine (0.1-1 mM). These plates were incubated at 28° C. in ChexAll Instant Seal Sterilization Pouches for 6 days, after which they were evaluated for growth.

[4] = test system: Fusarium venenatum EmY1154-46-4.3 (pyrG-deleted); test: Germination efficiency of spores of pyrG-deleted strain on uridine- and FdU-supplemented media
Procedure: Germination efficiency of spores from the pyrG-deleted Fusarium venenatum strain EmY1154-46-4.3 on uridine- and FdU-supplemented media was tested. Spores of Fusarium venenatum EmY1154-46-4.3 were generated as described in Example 5 using RA medium supplemented with 10 mM uridine. Fifty spores in a volume of 200 μl were aliquoted to each of 45 VNO3RLMT plates (14 cm diameter) supplemented with 0, 25, or 50 μM FdU and 0, 0.01, 0.05, 0.1, or 0.25 mM uridine. Triplicate plates of each combination of FdU and uridine were set up and incubated in ChexAll Instant Seal Sterilization Pouches at 26° C. for 10 days.

[5] = test system: Fusarium venenatum WTY1449-9-1 (tk-); test: Reconstruction experiment, growth on FdU-supplemented minimal media, tk- strain; details: 50 μM FdU
Procedure: as §1, §2

Question: Which results are given for `O=c1[nH]c(=O)n([C@H]2C[C@H](O)[C@@H](CO)O2)cc1F` [FdU, 5-fluoro-deoxyuridine]?
Answer: sensitivity (extent of growth) to FdU ([1]; FdU 0 to 500 μM, VNO3RLMT, 26-28° C.): insensitive; FdU concentration at which growth was slightly reduced ([1]; compared to concentrations of 50 μM and below): greater than 100 μM; growth ([2]; uridine 0.1-1 mM plates): grew as a uniform haze; growth after sub-culture ([2]; uridine-deficient media): could absolutely not grow; growth ([3]; 50 μM FdU plus uridine 0.1-1 mM): extensive growth; growth ([3]; 50 μM FdU, without uridine): no growth; spore germination frequency ([4]; 25 and 50 μM FdU, uridine 0.1 mM, 75% in the absence of FdU): approximately 50%; spore germination ([4]; 25 or 50 μM FdU, uridine 0.01 mM, 10 days, 26° C.): could not germinate; growth ([5]; all concentrations of uridine and medium lacking uridine): grew well; growth after sub-culture ([5]; uridine-deficient media): grew normally
